Measurements reported in PMC9532703, “A novel small molecule RK-019 inhibits FGFR2-amplification gastric cancer cell proliferation and induces apoptosis in vitro and in vivo” (Frontiers in Pharmacology, 2022).

How the values were obtained:
Assay in all cases: Kinase selectivity panel
Type in all cases: biochemical
ATR/ATRIP(h) = molecular target: T1, ATR/ATRIP(h) (Homo sapiens, UniProt Q13535); conditions: read-out: Inhibition(%) @ 1 µM RK-019
T1 construct: purchased Eurofins Discovery Services (KinaseProfiler)
Experimental: (§1) Median-inhibitory concentration (IC50) and inhibition ratio of kinases by RK-019 was assessed by Eurofins Discovery Services (Dundee, United Kingdom) using the ATP-site competition binding assay in vitro. Firstly, gradient concentration of RK-019 against FGFRs, including FGFR1, FGFR2, FGFR3, and FGFR4, were tested. IC50 value was calculate by the GraphPad Prism software (v8.4.3, GraphPad Software, California, United States). Then, to measure the selectivity prolife of RK-019, a panel of 422 recombinant human kinases was screened at a concentration of 1 µM RK-019. Kinase MAP was drawn by webtools from Cell Signaling Technology, Inc. (www.cellsignal.com).

CHK2(h) = molecular target: T2, CHK2(h) (Homo sapiens, UniProt O96017); conditions: read-out: Inhibition(%) @ 1 µM RK-019
T2 construct: purchased Eurofins Discovery Services (KinaseProfiler)
Experimental: as §1

CLK4(h) = molecular target: T3, CLK4(h) (Homo sapiens, UniProt Q9HAZ1); conditions: read-out: Inhibition(%) @ 1 µM RK-019
T3 construct: purchased Eurofins Discovery Services (KinaseProfiler)
Experimental: as §1

CaMKIIα(h) = molecular target: T4, CaMKIIα(h) (Homo sapiens, UniProt Q9UQM7); conditions: read-out: Inhibition(%) @ 1 µM RK-019
T4 construct: purchased Eurofins Discovery Services (KinaseProfiler)
Experimental: as §1

ChaK1(h) = molecular target: T5, ChaK1(h) (Homo sapiens, UniProt Q96QT4); conditions: read-out: Inhibition(%) @ 1 µM RK-019
T5 construct: purchased Eurofins Discovery Services (KinaseProfiler)
Experimental: as §1

DCAMKL2(h) = molecular target: T6, DCAMKL2(h) (Homo sapiens, UniProt Q8N568); conditions: read-out: Inhibition(%) @ 1 µM RK-019
T6 construct: purchased Eurofins Discovery Services (KinaseProfiler)
Experimental: as §1

DMPK(h) = molecular target: T7, DMPK(h) (Homo sapiens, UniProt Q09013); conditions: read-out: Inhibition(%) @ 1 µM RK-019
T7 construct: purchased Eurofins Discovery Services (KinaseProfiler)
Experimental: as §1

FGFR3(h) = molecular target: T8, FGFR3(h) (Homo sapiens, UniProt P22607)
T8 construct: purchased Eurofins Discovery Services (KinaseProfiler)
Experimental: as §1

Flt4(h) = molecular target: T9, Flt4(h) (Homo sapiens, UniProt P35916)
T9 construct: purchased Eurofins Discovery Services (KinaseProfiler)
Experimental: as §1

ICK(h) = molecular target: T10, ICK(h) (Homo sapiens, UniProt Q9UPZ9); conditions: read-out: Inhibition(%) @ 1 µM RK-019
T10 construct: purchased Eurofins Discovery Services (KinaseProfiler)
Experimental: as §1

JAK2(h) = molecular target: T11, JAK2(h) (Homo sapiens, UniProt O60674); conditions: read-out: Inhibition(%) @ 1 µM RK-019
T11 construct: purchased Eurofins Discovery Services (KinaseProfiler)
Experimental: as §1

MARK1(h) = molecular target: T12, MARK1(h) (Homo sapiens, UniProt Q9P0L2); conditions: read-out: Inhibition(%) @ 1 µM RK-019
T12 construct: purchased Eurofins Discovery Services (KinaseProfiler)
Experimental: as §1

MARK4(h) = molecular target: T13, MARK4(h) (Homo sapiens, UniProt Q96L34); conditions: read-out: Inhibition(%) @ 1 µM RK-019
T13 construct: purchased Eurofins Discovery Services (KinaseProfiler)
Experimental: as §1

MLK3(h) = molecular target: T14, MLK3(h) (Homo sapiens, UniProt Q16584); conditions: read-out: Inhibition(%) @ 1 µM RK-019
T14 construct: purchased Eurofins Discovery Services (KinaseProfiler)
Experimental: as §1

MST1(h) = molecular target: T15, MST1(h) (Homo sapiens, UniProt Q13043); conditions: read-out: Inhibition(%) @ 1 µM RK-019
T15 construct: purchased Eurofins Discovery Services (KinaseProfiler)
Experimental: as §1

Met(D1246N)(h) = molecular target: T16, Met(D1246N)(h) (Homo sapiens, UniProt P08581, D1228N); conditions: read-out: Inhibition(%) @ 1 µM RK-019
T16 construct: purchased Eurofins Discovery Services (KinaseProfiler)
Experimental: as §1

Met(Y1248C)(h) = molecular target: T17, Met(Y1248C)(h) (Homo sapiens, UniProt P08581, Y1230C); conditions: read-out: Inhibition(%) @ 1 µM RK-019
T17 construct: purchased Eurofins Discovery Services (KinaseProfiler)
Experimental: as §1

Met(Y1248D)(h) = molecular target: T18, Met(Y1248D)(h) (Homo sapiens, UniProt P08581, Y1230D); conditions: read-out: Inhibition(%) @ 1 µM RK-019
T18 construct: purchased Eurofins Discovery Services (KinaseProfiler)
Experimental: as §1

PASK(h) = molecular target: T19, PASK(h) (Homo sapiens, UniProt Q96RG2); conditions: read-out: Inhibition(%) @ 1 µM RK-019
T19 construct: purchased Eurofins Discovery Services (KinaseProfiler)
Experimental: as §1

[1] = molecular target: T20, PI3 Kinase (p110a(E545K)/p85a)(h) (Homo sapiens, UniProt P42336, E545K); conditions: read-out: Inhibition(%) @ 1 µM RK-019
T20 construct: purchased Eurofins Discovery Services (KinaseProfiler)
Experimental: as §1

[2] = molecular target: T21, PI3 Kinase (p110a(H1047R)/p85a)(h) (Homo sapiens, UniProt P42336, H1047R); conditions: read-out: Inhibition(%) @ 1 µM RK-019
T21 construct: purchased Eurofins Discovery Services (KinaseProfiler)
Experimental: as §1

[3] = molecular target: T22, PI3 Kinase (p110b/p85a)(m) (Mus musculus, UniProt Q8BTI9); conditions: read-out: Inhibition(%) @ 1 µM RK-019
T22 construct: purchased Eurofins Discovery Services (KinaseProfiler)
Experimental: as §1

PI3KC2a(h) = molecular target: T23, PI3KC2a(h) (Homo sapiens, UniProt O00443); conditions: read-out: Inhibition(%) @ 1 µM RK-019
T23 construct: purchased Eurofins Discovery Services (KinaseProfiler)
Experimental: as §1

PI3KC2g(h) = molecular target: T24, PI3KC2g(h) (Homo sapiens, UniProt O75747); conditions: read-out: Inhibition(%) @ 1 µM RK-019
T24 construct: purchased Eurofins Discovery Services (KinaseProfiler)
Experimental: as §1

PKCζ(h) = molecular target: T25, PKCζ(h) (Homo sapiens, UniProt Q05513); conditions: read-out: Inhibition(%) @ 1 µM RK-019
T25 construct: purchased Eurofins Discovery Services (KinaseProfiler)
Experimental: as §1

PKD2(h) = molecular target: T26, PKD2(h) (Homo sapiens, UniProt Q9BZL6); conditions: read-out: Inhibition(%) @ 1 µM RK-019
T26 construct: purchased Eurofins Discovery Services (KinaseProfiler)
Experimental: as §1

ROCK-I(h) = molecular target: T27, ROCK-I(h) (Homo sapiens, UniProt Q13464); conditions: read-out: Inhibition(%) @ 1 µM RK-019
T27 construct: purchased Eurofins Discovery Services (KinaseProfiler)
Experimental: as §1

Ron(h) = molecular target: T28, Ron(h) (Homo sapiens, UniProt Q04912); conditions: read-out: Inhibition(%) @ 1 µM RK-019
T28 construct: purchased Eurofins Discovery Services (KinaseProfiler)
Experimental: as §1

SIK2(h) = molecular target: T29, SIK2(h) (Homo sapiens, UniProt Q9H0K1); conditions: read-out: Inhibition(%) @ 1 µM RK-019
T29 construct: purchased Eurofins Discovery Services (KinaseProfiler)
Experimental: as §1

TSSK1(h) = molecular target: T30, TSSK1(h) (Homo sapiens, UniProt Q9BXA7); conditions: read-out: Inhibition(%) @ 1 µM RK-019
T30 construct: purchased Eurofins Discovery Services (KinaseProfiler)
Experimental: as §1

Tie2(R849W)(h) = molecular target: T31, Tie2(R849W)(h) (Homo sapiens, UniProt Q02763, R849W); conditions: read-out: Inhibition(%) @ 1 µM RK-019
T31 construct: purchased Eurofins Discovery Services (KinaseProfiler)
Experimental: as §1

TrkB(h) = molecular target: T32, TrkB(h) (Homo sapiens, UniProt Q16620); conditions: read-out: Inhibition(%) @ 1 µM RK-019
T32 construct: purchased Eurofins Discovery Services (KinaseProfiler)
Experimental: as §1

VRK1(h) = molecular target: T33, VRK1(h) (Homo sapiens, UniProt Q99986); conditions: read-out: Inhibition(%) @ 1 µM RK-019
T33 construct: purchased Eurofins Discovery Services (KinaseProfiler)
Experimental: as §1

WNK1(h) = molecular target: T34, WNK1(h) (Homo sapiens, UniProt Q9H4A3); conditions: read-out: Inhibition(%) @ 1 µM RK-019
T34 construct: purchased Eurofins Discovery Services (KinaseProfiler)
Experimental: as §1

cKit(V560G)(h) = molecular target: T35, cKit(V560G)(h) (Homo sapiens, UniProt P10721, V560G); conditions: read-out: Inhibition(%) @ 1 µM RK-019
T35 construct: purchased Eurofins Discovery Services (KinaseProfiler)
Experimental: as §1

T8 sequence (P22607 23-806): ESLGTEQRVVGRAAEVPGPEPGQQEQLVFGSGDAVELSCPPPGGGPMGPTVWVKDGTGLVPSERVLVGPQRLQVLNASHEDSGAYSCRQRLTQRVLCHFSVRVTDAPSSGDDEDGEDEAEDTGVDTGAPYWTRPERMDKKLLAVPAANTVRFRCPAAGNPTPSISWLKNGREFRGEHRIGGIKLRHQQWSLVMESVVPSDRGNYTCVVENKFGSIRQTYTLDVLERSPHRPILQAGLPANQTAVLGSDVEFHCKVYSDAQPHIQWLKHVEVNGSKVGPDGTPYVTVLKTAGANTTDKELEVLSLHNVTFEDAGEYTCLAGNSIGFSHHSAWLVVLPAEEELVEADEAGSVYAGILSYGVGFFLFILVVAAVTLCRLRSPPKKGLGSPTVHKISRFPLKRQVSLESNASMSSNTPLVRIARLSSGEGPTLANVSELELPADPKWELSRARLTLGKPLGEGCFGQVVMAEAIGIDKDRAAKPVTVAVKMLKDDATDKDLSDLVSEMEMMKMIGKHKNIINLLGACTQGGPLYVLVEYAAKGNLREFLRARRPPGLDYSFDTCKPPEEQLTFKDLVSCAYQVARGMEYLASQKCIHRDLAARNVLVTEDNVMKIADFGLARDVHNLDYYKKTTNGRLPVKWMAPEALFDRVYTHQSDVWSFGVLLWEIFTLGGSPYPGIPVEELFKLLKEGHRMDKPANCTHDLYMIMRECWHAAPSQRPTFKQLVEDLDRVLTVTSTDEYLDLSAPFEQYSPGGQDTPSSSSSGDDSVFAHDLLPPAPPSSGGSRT
T9 sequence (P35916 25-1363): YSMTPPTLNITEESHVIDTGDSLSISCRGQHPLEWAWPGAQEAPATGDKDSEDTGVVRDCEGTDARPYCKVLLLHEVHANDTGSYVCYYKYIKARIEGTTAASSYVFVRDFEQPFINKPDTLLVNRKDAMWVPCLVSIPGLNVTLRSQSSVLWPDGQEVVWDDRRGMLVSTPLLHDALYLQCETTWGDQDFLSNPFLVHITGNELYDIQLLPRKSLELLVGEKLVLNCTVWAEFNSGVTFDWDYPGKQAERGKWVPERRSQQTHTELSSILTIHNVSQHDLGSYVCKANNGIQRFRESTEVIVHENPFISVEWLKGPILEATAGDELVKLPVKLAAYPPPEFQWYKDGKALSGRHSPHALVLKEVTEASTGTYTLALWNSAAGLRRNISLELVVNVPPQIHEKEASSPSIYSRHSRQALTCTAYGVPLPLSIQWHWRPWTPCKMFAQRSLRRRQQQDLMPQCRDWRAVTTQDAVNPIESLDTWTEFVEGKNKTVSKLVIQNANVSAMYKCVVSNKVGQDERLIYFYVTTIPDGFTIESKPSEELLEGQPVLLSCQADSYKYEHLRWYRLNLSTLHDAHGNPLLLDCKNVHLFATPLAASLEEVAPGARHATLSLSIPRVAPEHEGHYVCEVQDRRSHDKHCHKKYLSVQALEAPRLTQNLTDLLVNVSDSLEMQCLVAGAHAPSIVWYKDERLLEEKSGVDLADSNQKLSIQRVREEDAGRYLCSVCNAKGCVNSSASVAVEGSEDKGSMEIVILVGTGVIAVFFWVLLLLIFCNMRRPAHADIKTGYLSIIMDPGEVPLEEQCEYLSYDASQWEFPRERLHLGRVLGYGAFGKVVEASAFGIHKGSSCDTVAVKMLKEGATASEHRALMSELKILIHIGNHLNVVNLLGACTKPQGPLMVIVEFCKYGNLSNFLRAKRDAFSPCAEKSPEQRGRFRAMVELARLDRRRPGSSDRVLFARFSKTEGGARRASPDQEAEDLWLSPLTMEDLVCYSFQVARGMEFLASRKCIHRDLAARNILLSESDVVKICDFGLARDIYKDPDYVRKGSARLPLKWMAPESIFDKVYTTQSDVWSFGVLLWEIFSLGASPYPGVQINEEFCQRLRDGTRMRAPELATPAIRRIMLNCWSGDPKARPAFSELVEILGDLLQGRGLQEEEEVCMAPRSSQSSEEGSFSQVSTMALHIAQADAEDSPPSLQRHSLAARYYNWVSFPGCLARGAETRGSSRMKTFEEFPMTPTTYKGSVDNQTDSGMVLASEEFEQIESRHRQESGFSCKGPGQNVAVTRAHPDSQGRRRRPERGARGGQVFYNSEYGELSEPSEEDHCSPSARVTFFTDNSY
T21 sequence (P42336 whole entry H1047R): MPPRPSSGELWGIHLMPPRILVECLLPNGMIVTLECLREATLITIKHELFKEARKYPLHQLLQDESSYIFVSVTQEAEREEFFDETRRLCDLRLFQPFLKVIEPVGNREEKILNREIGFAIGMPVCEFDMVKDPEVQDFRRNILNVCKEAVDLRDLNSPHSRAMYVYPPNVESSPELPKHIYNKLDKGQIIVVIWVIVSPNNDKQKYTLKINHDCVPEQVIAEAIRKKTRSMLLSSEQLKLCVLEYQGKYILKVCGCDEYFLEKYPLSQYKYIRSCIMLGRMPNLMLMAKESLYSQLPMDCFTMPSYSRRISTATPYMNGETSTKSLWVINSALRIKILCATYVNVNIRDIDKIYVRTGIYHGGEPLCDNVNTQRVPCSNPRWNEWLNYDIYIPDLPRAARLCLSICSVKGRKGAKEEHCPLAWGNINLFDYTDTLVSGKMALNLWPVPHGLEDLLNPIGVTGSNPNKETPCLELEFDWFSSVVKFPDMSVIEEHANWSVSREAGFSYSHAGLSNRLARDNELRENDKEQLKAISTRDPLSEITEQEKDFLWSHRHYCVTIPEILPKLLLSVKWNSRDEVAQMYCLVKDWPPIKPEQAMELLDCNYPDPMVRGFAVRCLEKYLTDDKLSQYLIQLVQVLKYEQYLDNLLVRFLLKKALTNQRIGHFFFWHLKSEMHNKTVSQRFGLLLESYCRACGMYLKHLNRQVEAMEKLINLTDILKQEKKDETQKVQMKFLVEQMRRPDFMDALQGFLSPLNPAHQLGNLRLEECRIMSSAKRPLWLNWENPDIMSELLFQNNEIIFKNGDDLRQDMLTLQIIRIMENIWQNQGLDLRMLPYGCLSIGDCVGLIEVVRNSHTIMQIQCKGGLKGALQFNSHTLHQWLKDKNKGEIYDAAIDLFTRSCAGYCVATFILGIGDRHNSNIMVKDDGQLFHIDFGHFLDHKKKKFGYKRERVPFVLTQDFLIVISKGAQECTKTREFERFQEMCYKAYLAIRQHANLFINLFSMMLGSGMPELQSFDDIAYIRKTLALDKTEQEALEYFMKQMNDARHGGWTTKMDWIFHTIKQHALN
T21 sequence (P27986 whole entry partner): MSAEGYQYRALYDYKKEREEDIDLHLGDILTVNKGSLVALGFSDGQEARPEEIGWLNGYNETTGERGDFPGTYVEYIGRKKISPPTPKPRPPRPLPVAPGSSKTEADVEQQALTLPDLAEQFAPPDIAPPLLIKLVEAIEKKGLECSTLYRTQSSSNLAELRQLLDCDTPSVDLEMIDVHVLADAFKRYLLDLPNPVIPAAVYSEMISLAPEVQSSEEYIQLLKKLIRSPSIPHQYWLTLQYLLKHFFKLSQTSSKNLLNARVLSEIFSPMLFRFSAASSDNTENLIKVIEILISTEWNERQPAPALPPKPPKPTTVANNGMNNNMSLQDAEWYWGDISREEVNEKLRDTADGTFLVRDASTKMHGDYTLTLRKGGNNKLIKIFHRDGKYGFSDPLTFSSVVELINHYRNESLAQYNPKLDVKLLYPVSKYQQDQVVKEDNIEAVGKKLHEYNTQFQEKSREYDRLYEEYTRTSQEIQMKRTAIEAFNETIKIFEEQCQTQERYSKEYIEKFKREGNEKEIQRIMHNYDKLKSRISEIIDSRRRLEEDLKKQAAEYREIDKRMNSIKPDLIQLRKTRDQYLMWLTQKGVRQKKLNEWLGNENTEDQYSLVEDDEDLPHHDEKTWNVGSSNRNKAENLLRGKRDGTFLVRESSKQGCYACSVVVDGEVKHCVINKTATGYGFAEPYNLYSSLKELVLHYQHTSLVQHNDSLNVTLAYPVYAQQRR
T10 sequence (Q9UPZ9 whole entry): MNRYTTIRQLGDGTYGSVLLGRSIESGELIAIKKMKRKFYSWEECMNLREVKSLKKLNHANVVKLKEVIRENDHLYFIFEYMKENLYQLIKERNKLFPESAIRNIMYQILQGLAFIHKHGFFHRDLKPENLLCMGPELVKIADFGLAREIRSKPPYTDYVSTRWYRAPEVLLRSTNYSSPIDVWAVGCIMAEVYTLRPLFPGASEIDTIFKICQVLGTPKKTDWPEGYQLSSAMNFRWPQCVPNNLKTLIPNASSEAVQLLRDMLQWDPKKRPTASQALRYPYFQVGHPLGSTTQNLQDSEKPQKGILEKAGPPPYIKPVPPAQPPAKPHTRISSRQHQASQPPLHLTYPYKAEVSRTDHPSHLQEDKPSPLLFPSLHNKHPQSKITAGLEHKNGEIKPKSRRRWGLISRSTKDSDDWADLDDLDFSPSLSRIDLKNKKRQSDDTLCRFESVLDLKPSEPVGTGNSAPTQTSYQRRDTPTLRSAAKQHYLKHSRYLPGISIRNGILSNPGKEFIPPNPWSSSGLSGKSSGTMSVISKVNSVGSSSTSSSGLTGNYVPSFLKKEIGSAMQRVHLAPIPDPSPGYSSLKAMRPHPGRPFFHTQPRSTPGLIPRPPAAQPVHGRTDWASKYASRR
T4 sequence (Q9UQM7 whole entry): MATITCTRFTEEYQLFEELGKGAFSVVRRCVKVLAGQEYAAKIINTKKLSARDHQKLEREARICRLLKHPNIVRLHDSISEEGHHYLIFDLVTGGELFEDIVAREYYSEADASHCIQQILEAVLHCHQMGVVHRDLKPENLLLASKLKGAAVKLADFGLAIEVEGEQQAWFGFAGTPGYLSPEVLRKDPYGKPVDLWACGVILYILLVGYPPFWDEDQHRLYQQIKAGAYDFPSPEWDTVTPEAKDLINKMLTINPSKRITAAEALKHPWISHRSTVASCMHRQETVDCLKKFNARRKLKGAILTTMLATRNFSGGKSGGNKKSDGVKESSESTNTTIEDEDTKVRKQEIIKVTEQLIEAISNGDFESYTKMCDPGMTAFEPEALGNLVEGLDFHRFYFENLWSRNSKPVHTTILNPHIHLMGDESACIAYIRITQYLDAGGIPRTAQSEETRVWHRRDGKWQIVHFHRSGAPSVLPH

Question: Which activity at 1 µM (ATR/ATRIP(h)) does the source give for `COc1cc(OC)cc(N(CCN[C@H](C)CO)c2ccc3ncc(-c4cnn(C)c4)c(=O)n3c2)c1` [RK-019, (R)-7-((3,5-dimethoxyphenyl) (2-((1-hydroxypropan-2-yl)amino)ethyl)amino)-3-(1-methyl-1H-pyrazol-4-yl)-4H-pyrido [1,2-a]pyrimidin-4-one] here?
Answer: 107%

Question: And the activity at 1 µM (CHK2(h))?
Answer: 96%

Question: And the activity at 1 µM (CLK4(h))?
Answer: 89%

Question: What about the activity at 1 µM (CaMKIIα(h)) of the same molecule?
Answer: 64%

Question: What about the activity at 1 µM (ChaK1(h)) of the same molecule?
Answer: 100%

Question: What about the activity at 1 µM (DCAMKL2(h)) of the same molecule?
Answer: 126%

Question: And the activity at 1 µM (DMPK(h))?
Answer: 98%

Question: And the activity at 1 µM (FGFR3(h); FGFR3(h), read-out: Inhibition(%) @ 1 µM RK-019)?
Answer: -3%

Question: And the inhibition at 1 µM (FGFR3(h); FGFR3, 1 µM, read-out: inhibition (hit in panel))?
Answer: > 90%

Question: And the inhibition at 1 µM (Flt4(h); FLT4, 1 µM, read-out: inhibition (hit in panel))?
Answer: > 90%

Question: What about the activity at 1 µM (Flt4(h); Flt4(h), read-out: Inhibition(%) @ 1 µM RK-019) of the same molecule?
Answer: 3%

Question: What about the activity at 1 µM (ICK(h)) of the same molecule?
Answer: 119%

Question: What about the activity at 1 µM (JAK2(h)) of the same molecule?
Answer: 106%

Question: What about the activity at 1 µM (MARK1(h)) of the same molecule?
Answer: 93%

Question: What about the activity at 1 µM (MARK4(h)) of the same molecule?
Answer: 106%

Question: What about the activity at 1 µM (MLK3(h)) of the same molecule?
Answer: 98%

Question: And the activity at 1 µM (MST1(h))?
Answer: 121%

Question: And the activity at 1 µM (Met(D1246N)(h))?
Answer: 89%

Question: What about the activity at 1 µM (Met(Y1248C)(h)) of the same molecule?
Answer: 85%

Question: What about the activity at 1 µM (Met(Y1248D)(h)) of the same molecule?
Answer: 103%

Question: And the activity at 1 µM (PASK(h))?
Answer: 96%

Question: And the activity at 1 µM [1]?
Answer: 100%

Question: And the activity at 1 µM [2]?
Answer: 100%

Question: And the activity at 1 µM [3]?
Answer: 98%

Question: What about the activity at 1 µM (PI3KC2a(h)) of the same molecule?
Answer: 104%

Question: And the activity at 1 µM (PI3KC2g(h))?
Answer: 102%

Question: And the activity at 1 µM (PKCζ(h))?
Answer: 91%

Question: And the activity at 1 µM (PKD2(h))?
Answer: 98%

Question: What about the activity at 1 µM (ROCK-I(h)) of the same molecule?
Answer: 101%

Question: And the activity at 1 µM (Ron(h))?
Answer: 124%

Question: What about the activity at 1 µM (SIK2(h)) of the same molecule?
Answer: 99%

Question: And the activity at 1 µM (TSSK1(h))?
Answer: 109%

Question: And the activity at 1 µM (Tie2(R849W)(h))?
Answer: 82%

Question: And the activity at 1 µM (TrkB(h))?
Answer: 94%

Question: What about the activity at 1 µM (VRK1(h)) of the same molecule?
Answer: 98%

Question: And the activity at 1 µM (WNK1(h))?
Answer: 95%

Question: And the activity at 1 µM (cKit(V560G)(h))?
Answer: 14%
